One experiment addresses T1, Orexin/Hypocretin receptor type 1 (Homo sapiens, UniProt O43613).
T1 sequence (O43613 whole entry): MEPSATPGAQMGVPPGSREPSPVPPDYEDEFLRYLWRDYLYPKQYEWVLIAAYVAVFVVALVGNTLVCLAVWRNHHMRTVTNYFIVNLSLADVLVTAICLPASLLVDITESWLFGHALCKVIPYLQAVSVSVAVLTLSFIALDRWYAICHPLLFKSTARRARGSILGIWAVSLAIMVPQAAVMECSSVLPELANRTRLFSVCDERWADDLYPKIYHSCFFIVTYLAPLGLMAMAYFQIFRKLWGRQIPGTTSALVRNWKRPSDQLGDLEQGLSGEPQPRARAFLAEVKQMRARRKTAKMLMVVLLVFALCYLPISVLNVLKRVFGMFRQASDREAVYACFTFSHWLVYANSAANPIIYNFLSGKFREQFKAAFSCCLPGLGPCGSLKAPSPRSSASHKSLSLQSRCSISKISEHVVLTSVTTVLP
The experiment in a line: Agonist activity at human OX1 receptor expressed in CHO cells assessed as increase in Ca2+ accumulation level measured after 24 hrs by FLIPR calcium 4 assay. The format is functional, cell-based.
As a reminder, the EC50 is the concentration giving half of the maximal effect. Consider `Cc1ccc2c(C(=O)N(C)C)cc(S(=O)(=O)Nc3cccc(NCCNC(=O)c4cccc(C)c4)c3)c-2cc1`, for which the EC50 was 1.62 µM.

For the next experiment, the target named is T2, Orexin receptor type 2 (Homo sapiens, UniProt O43614).
T2 sequence (O43614 whole entry): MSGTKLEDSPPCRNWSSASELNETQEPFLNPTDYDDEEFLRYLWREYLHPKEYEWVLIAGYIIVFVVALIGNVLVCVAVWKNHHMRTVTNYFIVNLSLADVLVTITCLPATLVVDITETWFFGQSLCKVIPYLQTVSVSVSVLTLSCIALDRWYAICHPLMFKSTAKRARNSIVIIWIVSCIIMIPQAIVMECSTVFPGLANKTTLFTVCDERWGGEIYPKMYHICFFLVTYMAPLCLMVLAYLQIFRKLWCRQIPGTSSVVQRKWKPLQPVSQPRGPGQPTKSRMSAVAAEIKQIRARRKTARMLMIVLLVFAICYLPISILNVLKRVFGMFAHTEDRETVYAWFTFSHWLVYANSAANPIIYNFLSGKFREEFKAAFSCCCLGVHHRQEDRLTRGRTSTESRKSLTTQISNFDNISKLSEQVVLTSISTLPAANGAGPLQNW
Briefly: Antagonist activity at human OX2 receptor expressed in CHO cells assessed as reduction in orexin-A induced calcium level at 10 uM incubated for 24 hrs by FLIPR calcium 4 assay. The format is functional, cell-based.
Broadly, the Ki is a dissociation constant, usually derived from enzyme kinetics or from competition with a known ligand. For the compound `Cc1ccc2c(C(=O)N(C)C)cc(S(=O)(=O)O)c-2cc1`, the Ki is greater than 10 µM. As for `Cc1cccc(C(=O)NCCNc2cccc(NS(=O)(=O)c3cc(C(=O)C(F)(F)F)c4ccc(C(=O)N(C)C)ccc3-4)c2)c1`, the Ki was greater than 10 µM. Consider `CN(C)C(=O)c1ccc2c(C(=O)N(C)C)cc(S(=O)(=O)O)c-2cc1`, for which the Ki was greater than 10 µM.

As for `Cc1ccc2c(C(=O)C(F)(F)F)cc(S(=O)(=O)O)c-2cc1`, the Ki is greater than 10 µM. On to `Cc1ccc2c(C(=O)C(F)(F)F)cc(S(=O)(=O)Nc3cccc(NCCNC(=O)c4cccc(C)c4)c3)c-2cc1`, for which the Ki was 5 µM. Same read-out and setting: for `CN(C)C(=O)c1ccc2ccc(C(=O)C(F)(F)F)c-2cc1` the value was greater than 10 µM. Turning to `CN(C)C(=O)c1ccc2ccc(C(=O)N(C)C)c-2cc1`, the Ki is greater than 10 µM. The same measure, in the same setting: for `Cc1cccc(C(=O)NCCN(C(=O)C(F)(F)F)c2cccc(NS(=O)(=O)c3cc(C(=O)C(F)(F)F)c4ccc(C(=O)N(C)C)ccc3-4)c2)c1` the value was greater than 10 µM. For the compound `Cc1ccc2c(C(=O)N(C)C)cc(S(=O)(=O)Nc3cccc(N(CCNC(=O)c4cccc(C)c4)C(=O)C(F)(F)F)c3)c-2cc1`, the Ki is greater than 10 µM.

Another experiment addresses T1, Orexin/Hypocretin receptor type 1. Briefly: Antagonist activity at human OX1 receptor expressed in CHO cells assessed as reduction in orexin-A induced calcium level at 10 uM incubated for 24 hrs by FLIPR calcium 4 assay. The format is functional, cell-based.
In the case of `Cc1ccc2c(C(=O)N(C)C)cc(S(=O)(=O)Nc3cccc(NCCNC(=O)c4cccc(C)c4)c3)c-2cc1`, the Ki came to 4 µM.
